From patent US11273141B2, “Low-dose carbachol compositions and methods for treatment of night vision disturbance” (VYLUMA INC., priority 2020, dated 2022)
Entries after “also recorded” stand apart in the source; their conditions may differ.

Tests used:
Dutch Belted Rabbits = assay: Pupillary diameter (pupillometry) after single ocular administration, rabbit eye model; assay type: in vivo
Protocol: Study design: 3 Dutch Belted Rabbits (pigmented breed)/group received a single ocular administration of test articles (one drop per eye) at 3 concentrations (tested one week apart). After a 2-week rest period, combinations were tested. Ocular Irritation was assessed using a modified Draize test. Intraocular pressure (IOP) was measured at baseline, 1 h, 4 h, 6 h and 24 h. Pupillary Diameter was measured at baseline, 15 min, 1 h, 4 h and 6 h after dosing.
Due to the variation in pupillary diameter and IOP between rabbits and between eyes within rabbits, the data for pupillary diameter and IOP were normalized and presented with error bars (SD). A change of 15% to 20% approximates a pupillary diameter change of 1 mm. In human, a reduction of pupillary diameter of about 2 mm is clinically generally desired.

human individuals = assay: Miotic response (dose response, eye color) to carbachol formulations in human; assay type: in vivo
From the text: FIG. 7 is a graph depicting exemplary results for a dose response in human using a carbachol formulation according to the inventive subject matter.
FIG. 8 is a graph depicting exemplary results for miotic response in human individuals of different eye color using a 0.29% carbachol formulation according to the inventive subject matter.
FIG. 9 is a graph depicting exemplary results for miotic response in human individuals of different eye color using a 0.50% carbachol formulation according to the inventive subject matter.
FIG. 10 is a graph depicting exemplary results for miotic response in human individuals of different eye color using a 0.75% carbachol formulation according to the inventive subject matter.
To optimize the concentration of carbachol in the topical ophthalmic formulations, the inventors tested various dosages, and the table below depicts the composition for the carbachol formulations used.
Exemplary results for the miotic effect of carbachol at 0.29%, 0.50%, and 0.75% are depicted in FIG. 7.

[1] = known side effects; cited from earlier work
pupillary muscle = assay: Effect of benzalkonium chloride on the miotic effect of carbachol; assay type: in vivo; conditions: carbachol 0.025% to 0.075%
From the text: In still further experiments, the inventors investigated the effect of benzalkonium chloride on the miotic effect of carbachol. To that end, different concentrations of BAC were employed between 0.005% and 0.02% at carbachol concentrations between 0.025% and 0.075%, and the results are shown in FIGS. 6A-6C.

[2] = 0.5% and 1%, one drop per eye, rabbit

Brc1c(NC2=NCCN2)ccc2nccnc12 [Brimonidine]
effect on pupillary diameter (in words) (Dutch Belted Rabbits; doses tested, concentration not given, rabbit): little to no effect

C[N+](C)(C)CCOC(N)=O [Carbachol, carbamoylcholine]
duration of action (Dutch Belted Rabbits; carbachol doses tested, rabbit): 2 to 4 h
duration of miotic efficacy (human individuals; 0.5%, single dose): 3 h
saturation of dose response (human individuals; tested formulations): 0.5%

COc1ccc2c3c1O[C@H]1C[C@@H](O)C=C[C@@]31CCN(C)C2 [Galantamine]
duration of reduction in pupillary diameter (Dutch Belted Rabbits; 2% (high dose) alone, rabbit): at least 1 h
decrease in pupillary diameter (Dutch Belted Rabbits; 2% alone, rabbit): 1-2 mm

Cc1ccc(N(CC2=NCCN2)c2cccc(O)c2)cc1 [Phentolamine]
decrease in the pupil (Dutch Belted Rabbits; [2]): approximately 1 mm
duration of decrease in the pupil (Dutch Belted Rabbits; [2]): at least 6 h
duration of reduction in pupillary diameter (Dutch Belted Rabbits; all doses, FIG. 1, rabbit): at least 6 h
reduction in pupillary diameter (in words) (Dutch Belted Rabbits; all doses, FIG. 1, rabbit): a reduction in pupillary diameter occurred at all doses

CCN(C)C(=O)Oc1cccc([C@H](C)N(C)C)c1 [Rivastigmine]
decrease in pupillary diameter (Dutch Belted Rabbits; 1% alone, rabbit): 1 mm
effect on pupillary diameter (in words) (Dutch Belted Rabbits; 1% alone, rabbit): very low effects as compared to carbachol; also recorded: performed substantially similar to Phentolamine; also recorded: desirable effect

CC(=O)OC1CN2CCC1CC2 (stereo not shown) [aceclidine, 1-azabicyclo[2.2.2]octan-3-yl acetate]
side effects [1]: increased salivation and bradycardia

N-Alkyl-N-benzyl-N,N-dimethyl-ammonium chloride [BAC]
effect of BAC on miotic effect of carbachol (pupillary muscle; BAC 0.005%): minimal effect
effect of BAC on miotic effect of carbachol (pupillary muscle; BAC 0.01%): somewhat more pronounced
effect of BAC on miotic effect of carbachol (pupillary muscle; BAC at least 0.02%): significant
